Patent US20050187288A1, “Beta-lapachone and methods of treating cancer” (priority 2004, published 2005)

Assays:
[1] = in vivo
ASPC-1 = assay: Colony formation assay, combination with Taxol; type: cell-based, human; details: β-Lapachone 4 μM, Taxol 0.2 μM, 4 hours
Method: Control wells were treated with equivalent volumes of DMSO. After 4 hours cells were rinsed and fresh medium is added. Cultures were observed daily for 10-20 days and then were fixed and stained. […] DNA laddering formation and annexin staining indicate that cell death is due to apoptosis.

60 cancer cell lines = assay: NCI in vitro screen of 60 cancer cell lines, sulforhodamine B assay; type: cell-based; details: Homo sapiens, 60 cell, read-out: LC50 (log10 molar concentration causing 50% lethality), mean across all cells (converted)
Method: The NCI screen includes cell lines isolated from leukemia, non-small cell lung cancer (NSCLC), colon, […] (CNS), melanoma, ovarian, renal, prostate and breast cancer tissues.
The NCI assays were performed under standardized conditions and use the sulforhodamine B assay as the endpoint. The NCI set of 60 lines included nine colon cancer cell lines (COLO 205, DLD-1, HCC-2998, HCT-116, HCT-15, HT29, KM12, KM20L2, and SW-620).
The NCI assays were performed under standardized conditions and use the sulforhodamine B assay as the endpoint. The NCI set of 60 lines included twelve non-small cell lung cancer cell lines (A549, EKVX, HOP-18, HOP-19, HOP-62, HOP-92, NCI-H226, NCI-H23, NCI-H322M, NCI-H460, NCI-H522, and LXFL 529), and three small cell lung cancer cell lines (DMS 114, DMS 273, AND SHP-77).

SK-MEL-28 = assay: cells; details: Homo sapiens, SK-MEL-28, read-out: LC50 (Replicate Results), SK-MEL-28, 4 hour exposure, colonies after 14-21 days
Method: Control plates received the same volume of DMSO alone. After a 4 hour exposure the drug was carefully removed, and drug-free medium could be added. […] Colonies of greater than 50 cells were scored as survivors. Cells were maintained at 37° C. in 5% CO2 in complete humidity.

CC1(C)CCC2=C(O1)c1ccccc1C(=O)C2=O [β-lapachone, 3,4-dihydro-2,2-dimethyl-2H-naphtho [1,2-b]pyran-5,6-dione]
doses without significant toxicity ([1]; Sprague-Dawley (Hsd:SD) rats, Beagle dogs, rat and dog, iv, 4 weeks): less than 270 mg/m^2 | bone marrow suppression, gastrointestinal toxicity, alopecia [1]: no evidence of bone marrow suppression, gastrointestinal toxicity or alopecia | major organ toxicity (myelosuppression, hepatic, renal, neurotoxicity, cardiotoxicity) [1]: No evidence of major organ toxicity | Colonies, Percentage of control (ASPC-1): 45 (1.9) Percentage of control | CC50 (60 cancer cell lines): 8.51 µM | CC50 (SK-MEL-28): 2.4 µM
